From patent US8952024B2, “Herbicidal pyrimidone derivatives” (E I du Pont de Nemours and Company, priority 2009, dated 2015)

Columns and labels:
Type in all cases: in vivo
[1] = system: bermudagrass (Cynodon dactylon); assay: Test B pre-/postemergence plant response
Outline: (§1)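 Response scores were assigned visually after 13 to 15 days in a greenhouse, comparing treated pots with controls on a 0–100 scale where 100 denotes complete control. Preemergence treatments went onto freshly seeded loam/sand soil; postemergence treatments onto plants 2 to 18 cm tall.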

[2] = system: cocklebur (Xanthium strumarium); assay: Test B pre-/postemergence plant response
Outline: as §1

[3] = system: goosegrass (Eleusine indica); assay: Test B pre-/postemergence plant response
Outline: as §1

[4] = system: green foxtail (Setaria viridis); assay: Test B pre-/postemergence plant response
Outline: as §1

[5] = system: lambsquarters (Chenopodium album); assay: Test B pre-/postemergence plant response
Outline: as §1

[6] = system: large crabgrass (Digitaria sanguinalis); assay: Test B pre-/postemergence plant response
Outline: as §1

[7] = system: morningglory (Ipomoea coccinea); assay: Test B pre-/postemergence plant response
Outline: as §1

[8] = system: wheat (Triticum aestivum); assay: Test B pre-/postemergence plant response
Outline: as §1

[9] = system: wild oat (Avena fatua); assay: Test B pre-/postemergence plant response
Outline: as §1

[10] = system: yellow nutsedge (Cyperus esculentus); assay: Test B pre-/postemergence plant response
Outline: as §1

[11] = system: barnyardgrass (Echinochloa crus-galli); assay: Test B flooded paddy test; conditions: for Plant response rating, Flood, Barnyardgrass: 250 g ai/ha, flooded paddy test, visual rating on 0 to 100 scale (0 no effect, 100 complete control) after 13 to 15 days; for Plant response rating, Barnyardgrass: Flood (flooded paddy test), 13 to 15 days
Outline: (§2)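 Plants were grown to the 2-leaf stage, then pots were flooded to 3 cm above the soil and compounds were applied directly into the paddy water. That depth was held throughout. After 13 to 15 days in a greenhouse, injury was visually rated against controls on a 0–100 scale.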

[12] = system: umbrella sedge (Cyperus difformis); assay: Test B flooded paddy test; conditions: for Plant response rating, Flood, Sedge, Umbrella: 250 g ai/ha, flooded paddy test, visual rating on 0 to 100 scale (0 no effect, 100 complete control) after 13 to 15 days; for Plant response rating, Sedge, Umbrella: Flood (flooded paddy test), 13 to 15 days
Outline: as §2

[13] = 31 g ai/ha, postemergence, scale 0 to 100, 0 is no effect, 100 is complete control
[14] = 250 g ai/ha, Preemergence, 0 to 100 scale
[15] = Postemergence, 62 g ai/ha, scale 0 (no effect) to 100 (complete control), 13 to 15 days
[16] = Postemergence, 125 g ai/ha, visual rating after 13 to 15 days, scale 0 (no effect) to 100 (complete control)
[17] = Postemergence, 250 g ai/ha, scale 0 to 100 (0 no effect, 100 complete control)
[18] = Preemergence, 31 g ai/ha, scale 0 to 100 (0 no effect, 100 complete control)
[19] = Preemergence, 62 g ai/ha, scale 0 to 100 (0 no effect, 100 complete control)
[20] = Preemergence, 125 g ai/ha, scale 0 to 100, 0 no effect, 100 complete control
[21] = 31 g ai/ha, scale of 0 to 100 where 0 is no effect and 100 is complete control
[22] = 62 g ai/ha, scale of 0 to 100 where 0 is no effect and 100 is complete control
[23] = 125 g ai/ha, scale 0 to 100, 0 is no effect, 100 is complete control
[24] = 62 g ai/ha, postemergence, 0 is no effect, 100 is complete control, 13 to 15 days
[25] = Postemergence, 125 g ai/ha, scale 0 to 100 (0 no effect, 100 complete control)
[26] = Flood, 31 g ai/ha, scale 0 to 100 (0 no effect, 100 complete control)

## O=C1CCCC(O)=C1C(=O)c1cnc(-c2cccc(Cl)c2)n(-c2ccc(Cl)cc2)c1=O [Compound 64]
[1]; [13]
  Plant response rating, Bermudagrass: 95
[1]; [14]
  Plant response rating, Bermudagrass: 98
[1]; [15]
  Plant response rating, Bermudagrass: 95
[1]; [16]
  Plant response rating, Bermudagrass: 98
[1]; [17]
  Plant response rating, Bermudagrass: 98
[1]; [18]
  Plant response rating, Bermudagrass: 50
[1]; [19]
  Plant response rating, Bermudagrass: 85
[1]; [20]
  Plant response rating, Bermudagrass: 98
[2]; [13]
  Plant response rating, Cocklebur: 90
[2]; [14]
  Plant response rating, Cocklebur: 70
[2]; [15]
  Plant response rating, Cocklebur: 95
[2]; [16]
  Plant response rating, Cocklebur: 95
[2]; [17]
  Plant response rating, Cocklebur: 95
[2]; [18]
  Plant response rating, Cocklebur: 0
[2]; [19]
  Plant response rating, Cocklebur: 0
[2]; [20]
  Plant response rating, Cocklebur: 10
[3]; [13]
  Plant response rating, Goosegrass: 80
[3]; [14]
  Plant response rating, Goosegrass: 100
[3]; [15]
  Plant response rating, Goosegrass: 80
[3]; [16]
  Plant response rating, Goosegrass: 85
[3]; [17]
  Plant response rating, Goosegrass: 90
[3]; [18]
  Plant response rating, Goosegrass: 30
[3]; [19]
  Plant response rating, Goosegrass: 40
[3]; [20]
  Plant response rating, Goosegrass: 98
[4]; [13]
  Plant response rating, Foxtail, Green: 70
[4]; [14]
  Plant response rating, Foxtail, Green: 50
[4]; [15]
  Plant response rating, Foxtail, Green: 85
[4]; [16]
  Plant response rating, Foxtail, Green: 100
[4]; [17]
  Plant response rating, Foxtail, Green: 100
[4]; [18]
  Plant response rating, Foxtail, Green: 0
[4]; [19]
  Plant response rating, Foxtail, Green: 0
[4]; [20]
  Plant response rating, Foxtail, Green: 0
[5]; [13]
  Plant response rating, Lambsquarters: 95
[5]; [14]
  Plant response rating, Lambsquarters: 98
[5]; [15]
  Plant response rating, Lambsquarters: 100
[5]; [16]
  Plant response rating, Lambsquarters: 100
[5]; [17]
  Plant response rating, Lambsquarters: 100
[5]; [18]
  Plant response rating, Lambsquarters: 95
[5]; [19]
  Plant response rating, Lambsquarters: 98
[5]; [20]
  Plant response rating, Lambsquarters: 98
[6]; [13]
  Plant response rating, Crabgrass, Large: 85
[6]; [14]
  Plant response rating, Crabgrass, Large: 98
[6]; [15]
  Plant response rating, Crabgrass, Large: 90
[6]; [16]
  Plant response rating, Crabgrass, Large: 98
[6]; [17]
  Plant response rating, Crabgrass, Large: 98
[6]; [18]
  Plant response rating, Crabgrass, Large: 50
[6]; [19]
  Plant response rating, Crabgrass, Large: 75
[6]; [20]
  Plant response rating, Crabgrass, Large: 98
[7]; [13]
  Plant response rating, Morningglory: 80
[7]; [15]
  Plant response rating, Morningglory: 80
[7]; [16]
  Plant response rating, Morningglory: 85
[7]; [17]
  Plant response rating, Morningglory: 90
[7]; [18]
  Plant response rating, Morningglory: 0
[7]; [19]
  Plant response rating, Morningglory: 0
[7]; [20]
  Plant response rating, Morningglory: 0
[8]; [13]
  Plant response rating, Wheat: 10
[8]; [15]
  Plant response rating, Wheat: 15
[8]; [16]
  Plant response rating, Wheat: 30
[8]; [17]
  Plant response rating, Wheat: 55
[8]; [18]
  Plant response rating, Wheat: 0
[8]; [19]
  Plant response rating, Wheat: 0
[8]; [20]
  Plant response rating, Wheat: 0
[9]; [13]
  Plant response rating, Oat, Wild: 60
[9]; [15]
  Plant response rating, Oat, Wild: 90
[9]; [16]
  Plant response rating, Oat, Wild: 95
[9]; [17]
  Plant response rating, Oat, Wild: 98
[9]; [18]
  Plant response rating, Oat, Wild: 0
[9]; [19]
  Plant response rating, Oat, Wild: 0
[9]; [20]
  Plant response rating, Oat, Wild: 0
[10]; [13]
  Plant response rating, Nutsedge, Yellow: 0
[10]; [15]
  Plant response rating, Nutsedge, Yellow: 10
[10]; [16]
  Plant response rating, Nutsedge, Yellow: 10
[10]; [17]
  Plant response rating, Nutsedge, Yellow: 25
[10]; [18]
  Plant response rating, Nutsedge, Yellow: 0
[10]; [19]
  Plant response rating, Nutsedge, Yellow: 0
[10]; [20]
  Plant response rating, Nutsedge, Yellow: 0
[11]
  Plant response rating, Flood, Barnyardgrass: 0
[11]; [21]
  Plant response rating, Barnyardgrass: 0
[11]; [22]
  Plant response rating, Barnyardgrass: 0
[11]; [23]
  Plant response rating, Barnyardgrass: 0
[12]
  Plant response rating, Flood, Sedge, Umbrella: 40
[12]; [21]
  Plant response rating, Sedge, Umbrella: 0
[12]; [22]
  Plant response rating, Sedge, Umbrella: 0
[12]; [23]
  Plant response rating, Sedge, Umbrella: 0

## CCCn1c(-c2ccc(F)cc2)ncc(C(=O)C2=C(O)CCCC2=O)c1=O [Compound 102]
[1]; [13]
  Plant response rating, Bermudagrass: 80
[1]; [24]
  Bermudagrass plant response rating (0 to 100 scale): 85
[1]; [25]
  Plant response rating, Bermudagrass: 85
[1]; [17]
  Plant response rating, Bermudagrass: 100
[2]; [13]
  Plant response rating, Cocklebur: 90
[2]; [24]
  Cocklebur plant response rating (0 to 100 scale): 95
[2]; [25]
  Plant response rating, Cocklebur: 100
[2]; [17]
  Plant response rating, Cocklebur: 100
[3]; [13]
  Plant response rating, Goosegrass: 55
[3]; [24]
  Goosegrass plant response rating (0 to 100 scale): 70
[3]; [25]
  Plant response rating, Goosegrass: 80
[3]; [17]
  Plant response rating, Goosegrass: 90
[4]; [13]
  Plant response rating, Foxtail, Green: 80
[4]; [24]
  Foxtail, Green plant response rating (0 to 100 scale): 90
[4]; [25]
  Plant response rating, Foxtail, Green: 90
[4]; [17]
  Plant response rating, Foxtail, Green: 95
[5]; [13]
  Plant response rating, Lambsquarters: 95
[5]; [24]
  Lambsquarters plant response rating (0 to 100 scale): 98
[5]; [25]
  Plant response rating, Lambsquarters: 100
[5]; [17]
  Plant response rating, Lambsquarters: 100
[6]; [13]
  Plant response rating, Crabgrass, Large: 70
[6]; [24]
  Crabgrass, Large plant response rating (0 to 100 scale): 80
[6]; [25]
  Plant response rating, Crabgrass, Large: 85
[6]; [17]
  Plant response rating, Crabgrass, Large: 90
[7]; [13]
  Plant response rating, Morningglory: 65
[7]; [24]
  Morningglory plant response rating (0 to 100 scale): 100
[7]; [25]
  Plant response rating, Morningglory: 100
[7]; [17]
  Plant response rating, Morningglory: 100
[8]; [24]
  Wheat plant response rating (0 to 100 scale): 10
[8]; [25]
  Plant response rating, Wheat: 20
[9]; [13]
  Plant response rating, Oat, Wild: 5
[9]; [24]
  Oat, Wild plant response rating (0 to 100 scale): 15
[9]; [25]
  Plant response rating, Oat, Wild: 40
[9]; [17]
  Plant response rating, Oat, Wild: 80
[10]; [13]
  Plant response rating, Nutsedge, Yellow: 45
[10]; [24]
  Nutsedge, Yellow plant response rating (0 to 100 scale): 65
[10]; [25]
  Plant response rating, Nutsedge, Yellow: 75
[10]; [17]
  Plant response rating, Nutsedge, Yellow: 80
[11]
  Plant response rating, Flood, Barnyardgrass: 70
[11]; [22]
  Plant response rating, Barnyardgrass: 60
[11]; [23]
  Plant response rating, Barnyardgrass: 60
[11]; [26]
  Barnyardgrass plant response rating: 15
[12]
  Plant response rating, Flood, Sedge, Umbrella: 75
[12]; [22]
  Plant response rating, Sedge, Umbrella: 40
[12]; [23]
  Plant response rating, Sedge, Umbrella: 65
[12]; [26]
  Sedge, Umbrella plant response rating: 30
